According to patent publication US10772944B2, “Bacterial ghosts for the treatment of cancer” (BIRD-C GMBH, priority 2016, dated 2020):

System: CT26 mouse colorectal carcinoma
Conditions: one cycle: BGs 4x10^8 at D4, oxaliplatin 6 mg/kg i.p. at D4, D6; harvest D18
Method: Treatment of mice started three days after tumor inoculation and comprised of either one or two cycles of BGs administration combined with either two or four drug administrations, respectively. Furthermore, part of mice was treated with either two or four drug administrations without the extra addition of BGs. Survival and animal behavior were monitored until the section day; animal weights were documented once per week. Tumor presence and burden were assessed at the section day including organ screening and photo documentation.
The mice were inoculated intraperitoneally (in lower left quadrant) with 1×10^5 cells of CT26 mouse colorectal carcinoma cells and randomly distributed into the seven groups (D1).
Three days after tumor inoculation (D4) the first group of animals (Group #1) received 100 μl of 5% glucose solution for injection (solvent) administered intraperitoneally at the same place as used for tumor inoculation.
Mice from Group #2.1 were injected intraperitoneally at D4 and D6 (five days after tumor inoculation) with 6 mg/kg oxaliplatin reconstituted in 100 μl of 5% glucose solution for injection at the same place as used for tumor inoculation. […]

O=C1[O][Pt]2([NH][C@@H]3CCCC[C@H]3[NH]2)[O]C1=O [oxaliplatin] was tested, and the “tumor burden (weight of collected tumor tissues) versus control” value was “tumor mass reduction detected”.
